Assay [1] has as its target GDP-bound NRAS wild-type protein (Homo sapiens, UniProt P01111). The assay can be described thus: Binding to NRAS by surface plasmon resonance (SPR), Single Cycle Kinetics. The conditions noted are these: SPR, GDP-bound NRAS wild-type protein vs GDP-bound KRAS wild-type protein.
Assay [2] deals with GDP-bound KRAS wild-type protein (Homo sapiens, UniProt P01116). The assay can be described thus: Binding to KRAS by surface plasmon resonance (SPR), Single Cycle Kinetics. The conditions noted are these: GDP-bound KRAS wild-type protein, read-out: KRAS KD.
The target of assay [3] is GDP-bound HRAS wild-type protein (Homo sapiens, UniProt P01112). Nature of the assay: Binding to HRAS by surface plasmon resonance (SPR), Single Cycle Kinetics. The conditions noted are these: SPR, GDP-bound HRAS wild-type protein vs GDP-bound KRAS wild-type protein.
Where [4] appears, read: SPR Single Cycle Kinetics, 1:1 binding model.

pKd: −log10 of the molar value. Where two headings read alike, the source gives them in different places. Where a SMILES comes first, the peptide text is derived from it. Bridges are numbered along the chain shown (N, C = ends). [ ]: non-standard residue; d: D form. hPhe(3-Cl-4-CF3) = N[C@@H](CCc1ccc(C(F)(F)F)c(Cl)c1)C(=O)O; NPrPhe(4-CF3) = CCCN[C@@H](Cc1ccc(C(F)(F)F)cc1)C(=O)O; NMeGly(cPent) = CN[C@H](C(=O)O)C1CCCC1; Hyp = O=C(O)[C@@H]1C[C@@H](O)CN1; NMeL = CN[C@@H](CC(C)C)C(=O)O; Ac4c = NC1(C(=O)O)CCC1; NEtG = CCNCC(=O)O; Sar = CNCC(=O)O

Chain of GDP-bound KRAS wild-type protein (P01116 whole entry): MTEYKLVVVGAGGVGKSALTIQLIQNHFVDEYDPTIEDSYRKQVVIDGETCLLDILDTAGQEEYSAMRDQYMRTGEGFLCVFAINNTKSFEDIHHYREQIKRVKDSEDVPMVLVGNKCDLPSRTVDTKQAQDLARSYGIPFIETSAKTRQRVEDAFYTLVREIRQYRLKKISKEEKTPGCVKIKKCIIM
Chain of GDP-bound NRAS wild-type protein (P01111 whole entry): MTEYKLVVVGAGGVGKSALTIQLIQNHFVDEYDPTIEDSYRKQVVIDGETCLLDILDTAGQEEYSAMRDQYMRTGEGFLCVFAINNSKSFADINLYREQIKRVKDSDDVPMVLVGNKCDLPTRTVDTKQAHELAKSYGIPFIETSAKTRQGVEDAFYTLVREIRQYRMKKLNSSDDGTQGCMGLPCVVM
Chain of GDP-bound HRAS wild-type protein (P01112 whole entry): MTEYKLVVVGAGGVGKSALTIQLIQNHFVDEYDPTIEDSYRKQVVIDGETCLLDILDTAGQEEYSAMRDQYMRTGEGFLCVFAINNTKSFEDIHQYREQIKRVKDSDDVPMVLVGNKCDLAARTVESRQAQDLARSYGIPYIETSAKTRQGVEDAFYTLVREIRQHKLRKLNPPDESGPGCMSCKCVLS

For the compound `CC[C@H](C)[C@@H]1NC(=O)[C@H](CC(C)C)N(C)C(=O)C[C@@H](C(=O)N2CCOCC2)N(C)C(=O)[C@H](C2CCCC2)N(C)C(=O)C2(CCCC2)NC(=O)[C@@H]2CCCN2C(=O)[C@H](CCc2ccc(C(F)(F)F)c(Cl)c2)NC(=O)CN(C)C(=O)[C@H](Cc2ccc(OC)cc2)N2CC=CC[C@@H](C2=O)N(C)C(=O)CN(C)C1=O` [PP0535], the “NRAS/KRAS (ratio of KD value with respect to NRAS to KD value with respect to KRAS)” value in assay [1] is “C (A compound having a KD ratio of 0.1 or more and less than 3 is denoted as C)”. In addition, in assay [2] (setting [4]), the pKd is 9.30. Besides, the “HRAS/KRAS (ratio of KD value with respect to HRAS to KD value with respect to KRAS)” value in assay [3] was “B (a compound having 3 or more and less than 10 is denoted as B)”.

Turning to `CCCN1C(=O)CN(C)C(=O)CN(CC)C(=O)[C@H]([C@@H](C)CC)NC(=O)[C@H](CC(C)C)N(C)C(=O)C[C@@H](C(=O)N(C)C)NC(=O)[C@H](C2CCCC2)N(C)C(=O)C2(CCC2)NC(=O)[C@@H]2C[C@@H](OCC)CN2C(=O)[C@H](CCc2ccc(C(F)(F)F)c(Cl)c2)NC(=O)CN(C)C(=O)[C@@H]1Cc1ccc(C(F)(F)F)cc1` [PP0372] ([NMeL]I[NEtG][Sar][NPrPhe(4-CF3)][Sar][hPhe(3-Cl-4-CF3)][Hyp](Et)[Ac4c][NMeGly(cPent)]D-NMe2; lactam N-11), the “NRAS/KRAS (ratio of KD value for NRAS to KD value for KRAS)” value in assay [1] is “B (a compound having 3 or more and less than 10 is denoted as B)”. In addition, the pKd in assay [2] (setting [4]) is 9.10. In addition, the “HRAS/KRAS (ratio of KD value for HRAS to KD value for KRAS)” value in assay [3] is “B (a compound having 3 or more and less than 10 is denoted as B)”.

As to `CCCN(C)C(=O)[C@@H]1CC(=O)N(C)[C@@H](C2CCC2)C(=O)N[C@@H]([C@@H](C)CC)C(=O)N(C)CC(=O)N(C)[C@H]2C/C=C\CCN(C2=O)[C@@H](Cc2ccc(C(F)(F)F)cc2)C(=O)N(C)CC(=O)N[C@@H](CCc2cc(F)c(C(F)(F)F)c(F)c2)C(=O)N2C[C@@H](C)C[C@H]2C(=O)NC2(CCC2)C(=O)N(C)[C@@H](C2CCCC2)C(=O)N1C` [PP2083], the “NRAS/KRAS (ratio of KD value for NRAS to KD value for KRAS)” value in assay [1] was “A (a compound having 10 or more and less than 20 is denoted as A)”. Besides, in assay [2] (SPR, Single Cycle Kinetics), the pKd is 9.66. In assay [3], the “HRAS/KRAS (ratio of KD value for HRAS to KD value for KRAS)” value is “B (a compound having 3 or more and less than 10 is denoted as B)”.

With `CCO[C@@H]1C[C@H]2C(=O)NC3(CCCC3)C(=O)N(C)[C@@H](C3CCCC3)C(=O)N(C)[C@H](C(=O)N3CCOCC3)CC(=O)N(C)[C@@H](CC(C)C)C(=O)N[C@@H]([C@@H](C)CC)C(=O)N(C)CC(=O)N(C)[C@H]3CCCCCN(C3=O)[C@@H](Cc3ccc(C(F)(F)F)cc3)C(=O)N(C)CC(=O)N[C@@H](CCc3cc(F)c(C(F)(F)F)c(F)c3)C(=O)N2C1` [PP0492], the “NRAS/KRAS (ratio of KD value with respect to NRAS to KD value with respect to KRAS)” value in assay [1] is “B (a compound having 3 or more and less than 10 is denoted as B)”. Also, the pKd in assay [2] (setting [4]) was 8.92. Moreover, the “HRAS/KRAS (ratio of KD value with respect to HRAS to KD value with respect to KRAS)” value in assay [3] is “B (a compound having 3 or more and less than 10 is denoted as B)”.

`CCO[C@@H]1C[C@H]2C(=O)NC3(CCC3)C(=O)N(C)[C@@H](C3CCCC3)C(=O)N(C)[C@H](C(=O)N3CCOCC3)CC(=O)N(C)C[C@@H](C)C(=O)N[C@@H]([C@@H](C)CC)C(=O)N(C)CC(=O)N(C)[C@H]3CCCCN(C3=O)[C@@H](Cc3ccc(C(F)(F)F)cc3)C(=O)N(C)CC(=O)N[C@@H](CCc3cc(F)c(C(F)(F)F)c(F)c3)C(=O)N2C1` [PP0721]: the “NRAS/KRAS (ratio of KD value with respect to NRAS to KD value with respect to KRAS)” value in assay [1] was “B (a compound having 3 or more and less than 10 is denoted as B)”. In addition, the pKd in assay [2] (setting [4]) is 7.96. Also, in assay [3], the “HRAS/KRAS (ratio of KD value with respect to HRAS to KD value with respect to KRAS)” value was “B (a compound having 3 or more and less than 10 is denoted as B)”.

These data come from patent US20240158446A1, “CYCLIC COMPOUND HAVING SELECTIVE INHIBITORY ACTION ON KRAS OVER HRAS AND NRAS” (CHUGAI SEIYAKU KABUSHIKI KAISHA, priority 2021, published 2024).
